Results taken from patent publication US20050118263A1, “Composition” (priority 2002, published 2005).

Key:
[1] = test system: patients with type 2 diabetes; test: Withdrawals from treatment in patients with type 2 diabetes; assay type: in vivo, human; details: carbenoxolone alone: of 8 patients, including one hospital admission with hypokalaemia
[2] = known from Yau et al. (1999) Neurosci Lett 277: 45-48; cited from earlier work
[3] = test system: patients with type 2 diabetes; test: Randomised double-blind placebo controlled crossover trial in type 2 diabetes patients: cognitive tests at end of each phase (Example 3); assay type: in vivo, human; details: 6 weeks per phase
Experimental: 12 patients with type 2 diabetes by World Health Organisation criteria (age range 52-70 y, mean 60.1 y), including 3 women and 9 men, participated in a randomised double-blind placebo controlled crossover trial comparing carbenoxolone (100 mg 8 hourly for 6 weeks by mouth) plus amiloride (10 mg daily by mouth) with placebo (8 hourly for 6 weeks by mouth) plus amiloride (10 mg daily by mouth). The two phases are separated by a washout period of 8 weeks. The order of carbenoxolone or placebo is randomised and the subjects and the experimenters are blind to the treatment given. At the end of each phase, tests of verbal fluency, verbal memory, visuospatial memory, attention and processing speed and intelligence are performed.

[4] = test system: healthy, unmedicated men; test: Randomised, double-blind, crossover trial in healthy men: cognitive tests at end of each phase (Example 2); assay type: in vivo, human; details: 4 weeks per phase, carbenoxolone 100 mg 8 hourly + amiloride 10 mg daily by mouth vs placebo + amiloride, p<0.01
Experimental: 10 healthy, unmedicated men (65.5 plus/minus SD 5.5y) participated in a randomised, double-blind, crossover trial comparing carbenoxolone (100 mg 8 hourly for 4 weeks by mouth) plus amiloride (10 mg daily by mouth) with placebo (8 hourly for 4 weeks by mouth) plus amiloride (10 mg daily by mouth). Each study phase lasts 4 weeks. The two phases are separated by an 8 week washout period. The order of carbenoxolone or placebo is randomised and the subjects and the experimenters are blind to the treatment given. Participants are asked to look out for potential adverse effects of carbenoxolone, including weight gain and pedal edema, and blood pressure and plasma electrolytes are monitored weekly. Compliance is assessed by pill counting and detecting carbenoxolone in plasma by high performance liquid chromatography. At the end of each phase, tests of verbal fluency, verbal memory, visuospatial memory, attention and processing speed, and intelligence are performed. Data are mean+/−SEM for the % change in cognitive score, calculated for each individual as (score with carbenoxolone+amiloride)−(score with placebo+amiloride)/(score with placebo+amiloride)×100. P values refer to comparison of absolute data in the two groups. Statistical analysis is conducted using Mann-Witney U tests and Friedman's non-parametric ANOVAs.

CC1(C)[C@@H](OC(=O)CCC(=O)O)CC[C@]2(C)[C@H]3C(=O)C=C4[C@@H]5C[C@@](C)(C(=O)O)CC[C@]5(C)CC[C@@]4(C)[C@]3(C)CC[C@@H]12 [carbenoxolone]
withdrawals due to sodium retention [1]: 3

CC(=O)S[C@@H]1CC2=CC(=O)CC[C@]2(C)[C@H]2CC[C@@]3(C)[C@@H](CC[C@@]34CCC(=O)O4)[C@H]12 [Spironolactone, 17-hydroxy-7-alpha-mercapto-3-oxo-17-alpha-pregn-4-ene-21-carboxylic acid gamma-lactone acetate]
unwanted effects on cognitive function [2]: reduce cognitive function

NC(N)=NC(=O)c1nc(Cl)c(N)nc1N [Placebo with Amiloride, 3,5-diamino-6-chloro-N-(diaminomethylene) pyrazinecarboxamide]
Processing speed: DSST, Mean (SD) ([3]; Digit Symbol Substitution test, p 0.78): 50.3 (6.7) | Reasoning: RSPM, Mean (SD) ([3]; Ravens Standard Progressive Matrices, p 0.17): 44.0 (6.6) | Verbal memory: Rey AVLT, Mean (SD) ([3]; Rey Auditory Verbal Learning Test, p <0.01): 56.1 (8.7) | Verbal memory: WM Logical Memory, Mean (SD) ([3]; Wechsler Memory Scale-revised, p 0.78): 49.7 (13.8) | Visual memory: WM Visual reproduction, Mean (SD) ([3]; Wechsler Memory Scale-revised, p 0.94): 59.9 (13.3) | Executive function: Verbal Fluency, Mean (SD) ([3]; p 0.48 between phases): 42.2 (8.4) | verbal fluency (Controlled Word Association test), mean/SD [4]: 41/12
